Reference: US8841313B2, “CCR2 antagonists and uses thereof” (Boehringer Ingelheim International GmbH, priority 2010, dated 2014)

Molecular target: T1, CCR2 (Homo sapiens, UniProt P41597)
T1 construct: Membranes were prepared from THP-1 cells; endogenous in cells; host or cells: THP-1 (human acute monocytic leukaemia cells), membrane preparation
Assay: CCR2 receptor membrane binding assay ([125I]MCP-1, THP-1 membranes, SPA beads)
Details: THP-1 cell membranes, [125I]MCP-1 displacement, bound radioactivity after 8 h; read-out: hKi
Method: The above exemplary substances have been tested for binding to CCR2 using a binding assay as outlined herein below:
THP-1 cells (human acute monocytic leukaemia cells) were cultured under standardized conditions at 37° C. and 5% CO2 in a humidified incubator. THP-1 cells were cultivated in RPMI 1640 medium (Gibco 21875) containing 1% MEM-NEAA (Gibso 11140) 2 mM L-glutamine, 1.5 g/L sodium bicarbonate, 4.5 g/L glucose, 10 mM HEPES and 1.0 mM sodium pyruvate, 90%; 10% fetal calf serum (FCS Gibco 10500-064).
Membranes were prepared from THP-1 cells. THP-1 cells were centrifuged at 300×g at 4° C. for 10 min. The cell pellet was resuspended in Phosphate Buffer Saline (PBS, including 10 μM Pefabloc and a protease inhibitor mix ‘complete’, Boehringer Mannheim (1 tablet/50 ml)), to a concentration of […]. The membrane preparation was performed by disrupting the cells by nitrogen […] (at 50 bar, for 1 h) in a “Nitrogen Bombe” (Parr Instrument). Cell debris was removed by centrifugation (800×g at 4° C., 1 min). The supernatant was centrifuged at 80000×g, 4° C. for 30 min to sediment the cell membranes. Usually 50 mg of protein (Bradford assay) were yielded from 1×10E9 cells. The membranes were resuspended in 25 mM HEPES, 25 mM MgCl2, 1 mM CaCl2, 10% Glycerine for storage in aliquots at −80° C. in 25 mM HEPES, 25 mM MgCl2, 1 mM CaCl2, 10% Glycerine and stored at −80° C.
Perkin Elmer NEX 332 Jod 125 MCP-1, Stock: 2200 Ci/mmol solved in 2000 μl assay buffer, stored at −20° C. THP-1 membrane were adjusted with 25 mM HEPES, pH 7.2; 5 mM MgCl2; 0.5 mM CaCl2; 0.2% BSA assay buffer to a concentration of 2.5 μg/15 μl. Amersham Biosciences PVT-WGA Beads (RPNQ0001) were adjusted with assay buffer to a concentration of 0.24 mg/30 μl. For preparation of the membrane-bead-suspension membranes and beads were incubated for 30 min at RT under rotation (60 rpm) with a ratio of 1:2. Test compounds dissolved in 100% DMSO to a concentration of 10 mM and are further diluted with 100% DMSO to 1 mM. All additional compound dilutions were obtained with assay buffer, final 1% DMSO. Compounds, membrane-bead-suspension and [125I]MCP-1 (ca. 25000 cpm/10 μl) were incubated. Bound radioactivity was determined by scintillation counter after 8 h. Determination of affinity of test compounds (dissociation constant hKi) is calculated by iterative fitting of experimental data using the “easy sys” program, which is based on law of mass action (Schittkowski K. (1994), Numerische Mathematik, Vol. 68, 129-142).

T1 sequence (P41597 whole entry): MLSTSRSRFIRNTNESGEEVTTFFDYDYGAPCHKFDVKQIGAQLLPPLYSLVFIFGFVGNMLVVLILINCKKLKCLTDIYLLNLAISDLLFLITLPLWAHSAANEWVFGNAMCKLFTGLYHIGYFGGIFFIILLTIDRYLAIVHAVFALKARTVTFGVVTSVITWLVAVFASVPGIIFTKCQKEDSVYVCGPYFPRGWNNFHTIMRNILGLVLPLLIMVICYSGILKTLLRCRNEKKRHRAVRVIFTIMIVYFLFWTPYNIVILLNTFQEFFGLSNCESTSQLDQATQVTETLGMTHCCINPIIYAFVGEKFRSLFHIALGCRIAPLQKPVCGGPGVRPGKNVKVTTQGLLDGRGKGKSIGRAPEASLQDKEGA

`COC1COCCC1NC1CCN(C(=O)c2ncnc(Oc3cccc(C(F)(F)F)c3)c2C)CC1` (stereo not shown) [Example 1] was tested, and the Ki was 278 nM.

Work on `COC1COCCC1NC1CCN(C(=O)c2ncnc(OCc3ccc(C(C)(C)C)cc3)c2C)CC1` (stereo not shown) [Example 2] yielded a Ki of 21 nM.

Molecule `COC1COCCC1NC1CCN(C(=O)c2ncnc(OCc3ccc(Cl)c(Cl)c3)c2C)CC1` (stereo not shown) [Example 2a] has a Ki of 8 nM.

`COC1COCCC1NC1CCN(C(=O)c2ncnc(OCc3ccc(C(F)(F)F)c(Cl)c3)c2C)CC1` (stereo not shown) [Example 2b] was tested, and the Ki was 8 nM.

`COC1COCCC1NC1CCN(C(=O)c2ncnc(OCc3cc(Cl)cc(Cl)c3)c2C)CC1` (stereo not shown) [Example 2c] gave a Ki of 18 nM.

In the case of `CO[C@@H]1COCC[C@@H]1NC1CCN(C(=O)c2ncnc(OCc3ccc(Cl)c(Cl)c3)c2C)CC1` [Example 2d], the Ki is reported as 12 nM.

`CO[C@H]1COCC[C@H]1NC1CCN(C(=O)c2ncnc(OC[C@H]3CCC[C@@H](c4ccc(OC(F)(F)F)cc4)O3)c2C)CC1` [Example 3] gave a Ki of 45 nM.

`CO[C@@H]1COCC[C@@H]1NC1CCN(C(=O)c2nccc(OCc3ccc(C(C)(C)C)cc3)c2C)CC1` [Example 3a] showed a Ki of 23 nM.

`CO[C@H]1COCC[C@H]1NC1CCN(C(=O)c2nccc(OCc3ccc(C(C)(C)C)cc3)c2C)CC1` [Example 3b] showed a Ki of 108 nM.

Molecule `COc1nc(OCc2ccc(C(F)(F)F)cc2)c(C)c(C(=O)N2CCC(N[C@@H]3CCOC[C@@H]3OC)CC2)n1` [Example 3c] has a Ki of 14 nM.

In the case of `COc1nc(OCc2ccc(C(F)(F)F)cc2)c(C)c(C(=O)N2CCC(N[C@H]3CCOC[C@H]3OC)CC2)n1` [Example 3d], the Ki is reported as 4 nM.

With `CO[C@H]1COCC[C@H]1NC1CCN(C(=O)c2nc(C(F)(F)F)nc(OCc3ccc(C(C)(C)C)cc3)c2C)CC1` [Example 3e] the Ki was 9 nM.

`CO[C@@H]1COCC[C@@H]1NC1CCN(C(=O)c2nc(C(F)(F)F)nc(OCc3ccc(C(C)(C)C)cc3)c2C)CC1` [Example 3f] was tested, and the Ki was 7 nM.

With `COc1nc(OCc2ccc(C(C)(C)C)cc2)c(C)c(C(=O)N2CCC(N[C@H]3CCOC[C@H]3OC)CC2)n1` [Example 3g] the Ki was 2 nM.

`COc1nc(OCc2cccc(C(F)(F)F)c2)c(C)c(C(=O)N2CCC(N[C@H]3CCOC[C@H]3OC)CC2)n1` [Example 3h] gave a Ki of 18 nM.

Molecule `COc1nc(OCc2ccc(C(C)(C)C)cc2)c(C)c(C(=O)N2CCC(N[C@@H]3CCOC[C@@H]3OC)CC2)n1` [Example 3i] has a Ki of 4 nM.

`COc1nc(OCc2ccc(C(F)(F)F)c(Cl)c2)c(C)c(C(=O)N2CCC(N[C@H]3CCOC[C@H]3OC)CC2)n1` [Example 3j] showed a Ki of 3 nM.

`COc1nc(OCc2ccc(C(F)(F)F)c(Cl)c2)c(C)c(C(=O)N2CCC(N[C@@H]3CCOC[C@@H]3OC)CC2)n1` [Example 3k] showed a Ki of 8 nM.

`COc1nc(OCc2ccc(Cl)c(F)c2)c(C)c(C(=O)N2CCC(N[C@H]3CCOC[C@H]3OC)CC2)n1` [Example 3l] showed a Ki of 8 nM.

For `COc1nc(OCc2ccc(Cl)c(Cl)c2)c(C)c(C(=O)N2CCC(N[C@H]3CCOC[C@H]3OC)CC2)n1` [Example 3m], the Ki was 10 nM.

For `CO[C@@H]1COCC[C@@H]1NC1CCN(C(=O)c2nc(C(F)(F)F)nc(OCc3ccc(Cl)c(Cl)c3)c2C)CC1` [Example 3n], the Ki was 16 nM.

With `CO[C@@H]1COCC[C@@H]1NC1CCN(C(=O)c2nc(C(F)(F)F)nc(OCc3cc(Cl)cc(Cl)c3)c2C)CC1` [Example 3o] the Ki was 18 nM.
